Results taken from ChEMBL document CHEMBL1201862, “PubChem BioAssay data set” (2004).
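Where inhibition never reached the appropriate level, the endpoint shown equals the highest concentration tested. Otherwise, values were interpolated linearly from a five-concentration, 48-hour dose response in 96-well plates. Abbreviation: GI50, concentration required for 50% inhibition of growth.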 The source made the active and inactive calls. Cut-off read from the data, not from the text of the source: active = GI50 up to about 1.1 µM and inactive = higher.

Experiments:
Experiment in all cases: NCI anticancer screen, dose series, 48 h
[1] = test system: A498
[2] = test system: ACHN
[3] = test system: CAKI-1
[4] = test system: DU-145
[5] = test system: HOP-92
[6] = test system: K562
[7] = test system: KM12
[8] = test system: M14
[9] = test system: MCF7
[10] = test system: MDA-MB-435
[11] = test system: NCI/ADR-RES
[12] = test system: OVCAR-3
[13] = test system: RXF 393
[14] = test system: SF-295
[15] = test system: SK-MEL-2
[16] = test system: SK-MEL-5
[17] = test system: SN12C
[18] = test system: SNB-75
[19] = test system: SR
[20] = test system: UO-31

Measured: GI50

Nc1nc(Cl)cc(NCCO)n1
inactive: [1] > 100 µM | [2] > 100 µM | [3] > 100 µM | [4] > 100 µM | [5] > 100 µM | [6] > 100 µM | [7] > 100 µM | [8] > 100 µM | [9] > 100 µM | [10] > 100 µM | [11] > 100 µM | [12] > 100 µM | [13] > 100 µM | [14] > 100 µM | [15] > 100 µM | [16] > 100 µM | [17] > 100 µM | [18] > 100 µM | [19] > 100 µM | [20] > 100 µM

COc1ccc2c(c1)CCCN2S(=O)(=O)c1ccccc1[N+](=O)[O-]
inactive: [1] 33.4 µM | [2] 41.1 µM | [3] > 89.5 µM | [4] 74.5 µM | [5] 42.6 µM | [6] 5.89 µM | [7] 10.7 µM | [8] 40.8 µM | [9] 21.6 µM | [10] 2.99 µM | [11] 19.2 µM | [12] 47.8 µM | [13] 25.6 µM | [14] 30.5 µM | [15] 22.5 µM | [16] 41.8 µM | [17] 65.6 µM | [18] 24.1 µM | [19] 11.1 µM | [20] 43 µM

c1ccc(-c2c3c(nc4c2CC[C@H]4NC2=NCCN2)[C@@H](NC2=NCCN2)CC3)cc1
inactive: [1] > 100 µM | [2] > 100 µM | [3] > 100 µM | [4] > 100 µM | [5] 20.7 µM | [6] > 100 µM | [7] > 100 µM | [8] > 100 µM | [9] > 100 µM | [10] > 100 µM | [11] > 100 µM | [12] 65.8 µM | [13] > 100 µM | [14] > 100 µM | [15] > 100 µM | [16] > 100 µM | [17] > 100 µM | [18] 58.1 µM | [19] > 100 µM | [20] > 100 µM

CN(C)CC1CCCCCCCCCC(CN(C)C)C1=O (stereo not drawn)
inactive: [1] > 28.4 µM | [2] > 31 µM | [3] > 35.4 µM | [4] 12.9 µM | [5] 20.4 µM | [7] > 21.4 µM | [8] 16.9 µM | [9] 5.07 µM | [10] 4.94 µM | [11] 6.43 µM | [12] > 20.3 µM | [13] 8.77 µM | [14] > 42.1 µM | [15] > 42.9 µM | [16] 17.3 µM | [17] > 25.4 µM | [18] 17.1 µM | [19] 17.6 µM | [20] > 38.7 µM

Cc1cn(C2CC(O)C(Cn3nncc3Cn3cnc4c(N)ncnc43)O2)c(=O)[nH]c1=O (stereo not drawn)
inactive: [1] > 100 µM | [2] > 100 µM | [3] > 100 µM | [4] > 100 µM | [5] > 100 µM | [7] > 100 µM | [8] > 100 µM | [9] > 100 µM | [10] > 100 µM | [11] > 100 µM | [12] > 100 µM | [13] > 100 µM | [14] > 100 µM | [15] > 100 µM | [16] > 100 µM | [17] > 100 µM | [18] 58.3 µM | [19] > 100 µM | [20] > 100 µM
